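Test compounds were applied to cells in 96-well plates for 48 hours at 5 doses. GI50 is the concentration that inhibits growth by half.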 Active and inactive are the calls of the source. Rule as the data show it: active = GI50 up to about 1.1 µM and inactive = higher.
Tests used:
Test in all cases: DTP human tumour cell line panel, 48 h
SF-268 = system: SF-268
SK-OV-3 = system: SK-OV-3
HCT-15 = system: HCT-15
UACC-62 = system: UACC-62
UO-31 = system: UO-31
MOLT-4 = system: MOLT-4
PC-3 = system: PC-3
RXF 393 = system: RXF 393
SR = system: SR
IGROV-1 = system: IGROV-1
K562 = system: K562
MCF7 = system: MCF7
NCI-H23 = system: NCI-H23
HCT-116 = system: HCT-116
MDA-MB-231 = system: MDA-MB-231
CAKI-1 = system: CAKI-1
HL-60 = system: HL-60
SK-MEL-5 = system: SK-MEL-5
Hs-578T = system: Hs-578T
LOX IMVI = system: LOX IMVI

Row | Structure (SMILES) | GI50 (SF-268) | GI50 (SK-OV-3) | GI50 (HCT-15) | GI50 (UACC-62) | GI50 (UO-31) | GI50 (MOLT-4) | GI50 (PC-3) | GI50 (RXF 393) | GI50 (SR) | GI50 (IGROV-1) | GI50 (K562) | GI50 (MCF7) | GI50 (NCI-H23) | GI50 (HCT-116) | GI50 (MDA-MB-231) | GI50 (CAKI-1) | GI50 (HL-60) | GI50 (SK-MEL-5) | GI50 (Hs-578T) | GI50 (LOX IMVI)
1 | O=c1[nH]nc(Cc2ccc(Cl)cc2)n1/N=C/c1cccs1 | 15.9 µM (inactive) | 43.9 µM (inactive) | > 100 µM | > 100 µM (inactive) | 46.2 µM (inactive) | > 100 µM (inactive) | > 100 µM (inactive) | 15.5 µM (inactive) | > 100 µM (inactive) | 23.1 µM (inactive) | > 100 µM (inactive) | 44.3 µM (inactive) | 24.9 µM (inactive) | 30.8 µM (inactive) | 21.3 µM (inactive) | 36.5 µM (inactive) | > 100 µM (inactive) | – | – | –
2 | CC(NC(=O)C(OC(=O)C(C)NC(=O)OC(C)(C)C)C(C)C)C(=O)OC(C(=O)O)C(C)C (configuration not stated) | > 100 µM (inactive) | > 100 µM (inactive) | > 100 µM | > 100 µM (inactive) | > 100 µM (inactive) | > 100 µM (inactive) | > 100 µM (inactive) | > 100 µM (inactive) | > 100 µM (inactive) | > 100 µM (inactive) | > 100 µM (inactive) | – | – | – | > 100 µM (inactive) | > 100 µM (inactive) | – | > 100 µM (inactive) | > 100 µM (inactive) | –
3 | CCOP(=O)(/C=C/n1ccc(=O)[nH]c1=O)OCC | > 100 µM (inactive) | > 100 µM (inactive) | > 100 µM | > 100 µM (inactive) | – | > 100 µM (inactive) | > 100 µM (inactive) | > 100 µM (inactive) | – | > 100 µM (inactive) | > 100 µM (inactive) | > 100 µM (inactive) | > 100 µM (inactive) | > 100 µM (inactive) | > 100 µM (inactive) | > 100 µM (inactive) | > 100 µM (inactive) | > 100 µM (inactive) | – | > 100 µM (inactive)
4 | CN(N)c1cc(=O)[nH]c(=O)[nH]1 | > 100 µM (inactive) | > 100 µM (inactive) | > 100 µM | > 100 µM (inactive) | – | > 100 µM (inactive) | > 100 µM (inactive) | – | > 100 µM (inactive) | > 100 µM (inactive) | > 100 µM (inactive) | – | > 100 µM (inactive) | > 100 µM (inactive) | > 100 µM (inactive) | 6.22 µM (inactive) | 43.4 µM (inactive) | > 100 µM (inactive) | 51.2 µM (inactive) | > 100 µM (inactive)
5 | Cc1ccc(S(=O)(=O)OCC(=O)O)cc1 | > 100 µM (inactive) | – | > 100 µM | > 100 µM (inactive) | > 100 µM (inactive) | > 100 µM (inactive) | > 100 µM (inactive) | > 100 µM (inactive) | > 100 µM (inactive) | > 100 µM (inactive) | > 100 µM (inactive) | – | > 100 µM (inactive) | > 100 µM (inactive) | > 100 µM (inactive) | > 100 µM (inactive) | > 100 µM (inactive) | > 100 µM (inactive) | > 100 µM (inactive) | > 100 µM (inactive)
6 | C[C@@H]1CC(=O)C[C@@H]2CC[C@H]3[C@@H]4CC[C@H](OC(=O)c5cccc6cc7ccccc7nc56)[C@H]4CC[C@@H]3[C@H]21 | 6.4 µM (inactive) | 25.2 µM (inactive) | 14.2 µM | 13.3 µM (inactive) | 16.9 µM (inactive) | 3.48 µM (inactive) | 12.1 µM (inactive) | 18.1 µM (inactive) | – | 3.89 µM (inactive) | 8 µM (inactive) | – | 14.7 µM (inactive) | 14.1 µM (inactive) | 15.9 µM (inactive) | 17.4 µM (inactive) | – | 13.2 µM (inactive) | 21.6 µM (inactive) | 15.6 µM (inactive)
7 | CCCCCCCCCCCCN1[C@H]2CCC[C@H]2C(O)[C@@H]2CCC[C@@H]21 (some centres not stated) | > 100 µM (inactive) | > 100 µM (inactive) | 56.4 µM | > 100 µM (inactive) | – | > 100 µM (inactive) | 88.5 µM (inactive) | > 100 µM (inactive) | 41 µM (inactive) | 98.9 µM (inactive) | > 100 µM (inactive) | – | 42.6 µM (inactive) | 53.8 µM (inactive) | > 100 µM (inactive) | > 100 µM (inactive) | 33.8 µM (inactive) | 58.2 µM (inactive) | > 100 µM (inactive) | 81.8 µM (inactive)
8 | CNC(=S)NNc1ncnc2c1ncn2-c1ccc(C)cc1 | > 100 µM (inactive) | > 100 µM (inactive) | > 100 µM | > 100 µM (inactive) | > 100 µM (inactive) | > 100 µM (inactive) | > 100 µM (inactive) | > 100 µM (inactive) | > 100 µM (inactive) | > 100 µM (inactive) | > 100 µM (inactive) | – | > 100 µM (inactive) | > 100 µM (inactive) | 43.9 µM (inactive) | > 100 µM (inactive) | > 100 µM (inactive) | > 100 µM (inactive) | > 100 µM (inactive) | > 100 µM (inactive)
9 | COC(=O)C1=C(O)c2cc3c(cc2[C@H](c2cc(OC)c(OC)c(OC)c2)C1)OCO3 | 51.5 µM (inactive) | > 100 µM (inactive) | 25.2 µM | 5.74 µM (inactive) | 3.24 µM (inactive) | 24.1 µM (inactive) | – | 57.9 µM (inactive) | 30.8 µM (inactive) | 24.4 µM (inactive) | 22.5 µM (inactive) | – | 41.7 µM (inactive) | 55.3 µM (inactive) | – | 34.8 µM (inactive) | 14.3 µM (inactive) | 20.8 µM (inactive) | – | 30.5 µM (inactive)
10 | O=C(c1cccc2ccccc12)C1S(=O)(=O)OCCOS1(=O)=O | – | – | > 100 µM | – | > 100 µM (inactive) | > 100 µM (inactive) | > 100 µM (inactive) | – | > 100 µM (inactive) | – | > 100 µM (inactive) | > 100 µM (inactive) | > 100 µM (inactive) | > 100 µM (inactive) | > 100 µM (inactive) | > 100 µM (inactive) | > 100 µM (inactive) | > 100 µM (inactive) | – | –
11 | CC1(C)OC[C@@H]([C@H](O)C2C=CC(=O)S2)O1 (some centres not stated) | 15.5 µM (inactive) | 34.6 µM (inactive) | 19.8 µM | 14.6 µM (inactive) | 20.8 µM (inactive) | 32 µM (inactive) | 34 µM (inactive) | 15 µM (inactive) | – | – | 25.4 µM (inactive) | 30.2 µM (inactive) | 26.4 µM (inactive) | 14.3 µM (inactive) | 30.8 µM (inactive) | 28.1 µM (inactive) | 8.73 µM (inactive) | 18.7 µM (inactive) | – | 15.7 µM (inactive)
12 | Cc1c(NC(=S)N/N=C\C(=N/NC(=S)Nc2c(C)n(C)n(-c3ccccc3)c2=O)c2ccccc2)c(=O)n(-c2ccccc2)n1C | > 100 µM (inactive) | > 100 µM (inactive) | > 100 µM | > 100 µM (inactive) | > 100 µM (inactive) | > 100 µM (inactive) | > 100 µM (inactive) | > 100 µM (inactive) | > 100 µM (inactive) | – | – | – | > 100 µM (inactive) | > 100 µM (inactive) | > 100 µM (inactive) | > 100 µM (inactive) | – | > 100 µM (inactive) | > 100 µM (inactive) | –
13 | O=c1s[s+]([O-])c2ccccc12 (configuration not stated) | – | > 100 µM (inactive) | 72.9 µM | > 100 µM (inactive) | > 100 µM (inactive) | > 100 µM (inactive) | > 100 µM (inactive) | – | > 100 µM (inactive) | > 100 µM (inactive) | 45.7 µM (inactive) | > 100 µM (inactive) | > 100 µM (inactive) | > 100 µM (inactive) | > 100 µM (inactive) | > 100 µM (inactive) | 46.9 µM (inactive) | > 100 µM (inactive) | – | 58.3 µM (inactive)
14 | O=[N+]([O-])c1ccc(-n2nnc(C3=NCCN3)c2-c2ccccc2)cc1 | > 100 µM (inactive) | > 100 µM (inactive) | > 100 µM | > 100 µM (inactive) | > 100 µM (inactive) | > 100 µM (inactive) | – | > 100 µM (inactive) | > 100 µM (inactive) | > 100 µM (inactive) | > 100 µM (inactive) | – | > 100 µM (inactive) | > 100 µM (inactive) | – | > 100 µM (inactive) | > 100 µM (inactive) | > 100 µM (inactive) | – | > 100 µM (inactive)
15 | CC1(C)C(=O)C=CC2(C)C1CC(O)C1(C)C2CCC2(C)C(c3ccoc3)OC(=O)C3OC321 (configuration not stated) | – | 23.7 µM (inactive) | 10.6 µM | 12.6 µM (inactive) | 11.4 µM (inactive) | 5.87 µM (inactive) | 31.6 µM (inactive) | 15 µM (inactive) | – | 14.3 µM (inactive) | 24.8 µM (inactive) | 28.8 µM (inactive) | 12.1 µM (inactive) | 15.3 µM (inactive) | 15.8 µM (inactive) | 11.7 µM (inactive) | – | 6.43 µM (inactive) | – | 15.7 µM (inactive)
16 | CO[C@@H](c1ccccc1)[C@H](O)[C@](O)(c1ccccc1)P(=O)(OC)OC | > 100 µM (inactive) | > 100 µM (inactive) | > 100 µM | > 100 µM (inactive) | > 100 µM (inactive) | > 100 µM (inactive) | > 100 µM (inactive) | > 100 µM (inactive) | > 100 µM (inactive) | > 100 µM (inactive) | > 100 µM (inactive) | – | > 100 µM (inactive) | > 100 µM (inactive) | > 100 µM (inactive) | > 100 µM (inactive) | > 100 µM (inactive) | > 100 µM (inactive) | > 100 µM (inactive) | > 100 µM (inactive)
